Results on 2 molecules are retold here after article PMC4770715, “LIM kinase inhibitors disrupt mitotic microtubule organization and impair tumor cell proliferation” (Oncotarget, 2015).

Some targets named below: IRAK3 (Homo sapiens, UniProt Q9Y616); PIK3CG (Homo sapiens, UniProt P48736); MAP3K4 (Homo sapiens, UniProt Q9Y6R4); MKNK2 (Homo sapiens, UniProt Q9HBH9); CAMKK1 (Homo sapiens, UniProt Q8N5S9); PKNB(M.tuberculosis) (Mycobacterium tuberculosis, UniProt P9WI81); EPHA1 (Homo sapiens, UniProt P21709); GSK3B (Homo sapiens, UniProt P49841); FGR (Homo sapiens, UniProt P09769); TTK (Homo sapiens, UniProt P33981); ROCK2 (Homo sapiens, UniProt O75116); PRKX (Homo sapiens, UniProt P51817); EGFR(L858R,T790M) (Homo sapiens, UniProt P00533, L858R/T790M); DYRK1B (Homo sapiens, UniProt Q9Y463); ERBB3 (Homo sapiens, UniProt P21860); CLK1 (Homo sapiens, UniProt P49759).

Assay in all cases: biochemical
Holding throughout (design): KINOMEscan active-site competition binding, percent of control (100 = no competition)
Common to all, as to conditions: competition binding, percent control

In the next experiment the target is T1, MEK6 (Homo sapiens, UniProt P52564).
T1 construct: gene MAP2K6
T1 sequence (P52564 whole entry): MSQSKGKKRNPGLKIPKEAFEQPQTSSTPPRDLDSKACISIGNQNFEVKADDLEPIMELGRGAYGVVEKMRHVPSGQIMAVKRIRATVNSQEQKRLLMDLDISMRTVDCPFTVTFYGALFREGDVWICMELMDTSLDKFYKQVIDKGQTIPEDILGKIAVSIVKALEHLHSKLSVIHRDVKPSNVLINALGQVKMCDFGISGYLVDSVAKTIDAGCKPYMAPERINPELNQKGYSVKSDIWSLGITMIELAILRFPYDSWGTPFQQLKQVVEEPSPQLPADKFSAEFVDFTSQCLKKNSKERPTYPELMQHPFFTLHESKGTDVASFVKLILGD

For a further experiment, the target named is T2, GCN2(Kin.Dom.2,S808G) (Homo sapiens, UniProt Q9P2K8, S808G).
T2 construct: gene EIF2AK4; Kin.Dom.2

For a further experiment, the target named is T3, PKAC-beta (Homo sapiens, UniProt P22694).
T3 construct: gene PRKACB

Experiment [1] has as its target T4, JAK1(JH2domain-pseudokinase) (Homo sapiens, UniProt P23458).
T4 construct: JH2domain-pseudokinase

Another experiment deals with T5, DCAMKL2 (Homo sapiens, UniProt Q8N568).
T5 construct: gene DCLK2

Another experiment has as its target T6, JNK3 (Homo sapiens, UniProt P53779).
T6 construct: gene MAPK10

Another experiment deals with T7, JNK1 (Homo sapiens, UniProt P45983).
T7 construct: gene MAPK8
T7 sequence (P45983 whole entry): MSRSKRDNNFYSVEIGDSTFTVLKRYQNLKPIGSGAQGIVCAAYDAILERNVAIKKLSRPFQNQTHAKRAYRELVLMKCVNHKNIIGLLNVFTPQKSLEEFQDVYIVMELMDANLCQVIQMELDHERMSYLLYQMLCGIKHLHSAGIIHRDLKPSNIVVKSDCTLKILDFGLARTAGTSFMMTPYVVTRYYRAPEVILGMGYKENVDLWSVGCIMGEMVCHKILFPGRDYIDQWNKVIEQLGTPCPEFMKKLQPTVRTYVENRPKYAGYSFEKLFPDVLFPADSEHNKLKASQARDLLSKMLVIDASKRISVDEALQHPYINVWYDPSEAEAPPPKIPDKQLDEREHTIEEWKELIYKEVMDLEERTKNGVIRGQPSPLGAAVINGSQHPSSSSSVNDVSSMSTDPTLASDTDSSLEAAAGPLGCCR

GSK3B, sequence (P49841 whole entry): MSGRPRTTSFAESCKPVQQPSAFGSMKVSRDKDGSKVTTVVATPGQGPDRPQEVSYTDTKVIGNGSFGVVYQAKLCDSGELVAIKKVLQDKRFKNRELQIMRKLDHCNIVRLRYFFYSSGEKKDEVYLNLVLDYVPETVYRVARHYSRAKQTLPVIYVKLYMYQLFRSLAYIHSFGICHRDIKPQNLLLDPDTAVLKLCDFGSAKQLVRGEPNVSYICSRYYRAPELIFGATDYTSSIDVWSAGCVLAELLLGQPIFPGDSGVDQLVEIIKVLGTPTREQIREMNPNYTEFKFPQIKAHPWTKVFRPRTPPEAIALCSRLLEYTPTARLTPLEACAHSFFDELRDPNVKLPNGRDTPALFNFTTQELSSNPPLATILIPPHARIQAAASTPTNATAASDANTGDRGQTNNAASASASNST
PRKX, sequence (P51817 whole entry): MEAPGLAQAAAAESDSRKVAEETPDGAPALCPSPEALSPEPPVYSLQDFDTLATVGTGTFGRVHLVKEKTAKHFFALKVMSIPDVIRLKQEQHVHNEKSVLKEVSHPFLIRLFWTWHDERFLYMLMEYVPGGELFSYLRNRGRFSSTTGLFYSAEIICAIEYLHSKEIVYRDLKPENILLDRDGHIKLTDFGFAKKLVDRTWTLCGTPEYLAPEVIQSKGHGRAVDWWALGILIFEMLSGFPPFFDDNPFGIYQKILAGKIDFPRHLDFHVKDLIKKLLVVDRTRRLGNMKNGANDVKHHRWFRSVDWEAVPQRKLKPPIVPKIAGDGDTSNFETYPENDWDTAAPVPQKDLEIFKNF
MKNK2, sequence (Q9HBH9 whole entry): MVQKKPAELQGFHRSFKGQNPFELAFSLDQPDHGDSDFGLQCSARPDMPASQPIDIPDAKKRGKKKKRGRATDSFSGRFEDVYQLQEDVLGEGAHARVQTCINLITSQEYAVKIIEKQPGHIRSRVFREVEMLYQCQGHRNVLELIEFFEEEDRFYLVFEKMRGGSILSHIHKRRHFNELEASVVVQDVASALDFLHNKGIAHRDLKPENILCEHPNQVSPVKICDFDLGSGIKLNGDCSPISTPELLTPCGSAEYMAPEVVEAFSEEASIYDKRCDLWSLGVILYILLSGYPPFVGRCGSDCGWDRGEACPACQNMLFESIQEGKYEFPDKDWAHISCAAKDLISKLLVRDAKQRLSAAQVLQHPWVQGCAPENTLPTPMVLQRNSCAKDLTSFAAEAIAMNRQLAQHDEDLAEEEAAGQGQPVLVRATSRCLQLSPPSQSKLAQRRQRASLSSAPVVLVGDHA
ERBB3, sequence (P21860 whole entry): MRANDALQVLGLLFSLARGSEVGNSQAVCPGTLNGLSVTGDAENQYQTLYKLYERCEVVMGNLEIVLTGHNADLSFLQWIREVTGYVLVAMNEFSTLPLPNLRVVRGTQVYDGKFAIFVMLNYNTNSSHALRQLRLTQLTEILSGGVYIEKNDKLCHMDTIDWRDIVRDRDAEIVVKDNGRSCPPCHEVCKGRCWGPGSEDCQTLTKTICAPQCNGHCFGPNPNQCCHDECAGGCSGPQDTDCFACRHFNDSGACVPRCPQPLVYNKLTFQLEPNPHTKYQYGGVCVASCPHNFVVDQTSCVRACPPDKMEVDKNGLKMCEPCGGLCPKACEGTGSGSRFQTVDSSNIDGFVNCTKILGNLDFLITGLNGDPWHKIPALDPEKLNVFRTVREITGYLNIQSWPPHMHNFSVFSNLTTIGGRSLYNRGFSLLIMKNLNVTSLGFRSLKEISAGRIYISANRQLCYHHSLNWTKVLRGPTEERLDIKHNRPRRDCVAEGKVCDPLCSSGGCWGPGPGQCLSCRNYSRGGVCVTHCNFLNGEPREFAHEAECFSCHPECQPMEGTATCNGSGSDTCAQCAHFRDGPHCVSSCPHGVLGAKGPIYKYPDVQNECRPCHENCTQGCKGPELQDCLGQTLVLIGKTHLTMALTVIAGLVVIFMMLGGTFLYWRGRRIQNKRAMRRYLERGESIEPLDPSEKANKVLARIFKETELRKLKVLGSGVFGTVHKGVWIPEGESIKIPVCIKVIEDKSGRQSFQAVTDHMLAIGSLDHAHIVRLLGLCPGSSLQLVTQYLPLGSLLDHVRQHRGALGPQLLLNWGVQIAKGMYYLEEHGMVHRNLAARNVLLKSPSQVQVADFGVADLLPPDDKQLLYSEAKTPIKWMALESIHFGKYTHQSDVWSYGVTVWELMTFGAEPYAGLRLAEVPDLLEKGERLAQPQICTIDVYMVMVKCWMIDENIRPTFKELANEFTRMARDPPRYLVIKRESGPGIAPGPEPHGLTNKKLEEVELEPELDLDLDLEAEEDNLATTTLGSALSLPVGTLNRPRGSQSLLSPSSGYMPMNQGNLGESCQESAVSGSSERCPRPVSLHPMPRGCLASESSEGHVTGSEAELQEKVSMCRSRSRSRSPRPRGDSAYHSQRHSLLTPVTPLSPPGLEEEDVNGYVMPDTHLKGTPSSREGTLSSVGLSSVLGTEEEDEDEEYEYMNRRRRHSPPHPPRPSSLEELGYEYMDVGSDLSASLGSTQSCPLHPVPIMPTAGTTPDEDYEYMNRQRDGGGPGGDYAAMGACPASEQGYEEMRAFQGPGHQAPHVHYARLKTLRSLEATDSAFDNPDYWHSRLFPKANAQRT
CLK1, sequence (P49759 whole entry): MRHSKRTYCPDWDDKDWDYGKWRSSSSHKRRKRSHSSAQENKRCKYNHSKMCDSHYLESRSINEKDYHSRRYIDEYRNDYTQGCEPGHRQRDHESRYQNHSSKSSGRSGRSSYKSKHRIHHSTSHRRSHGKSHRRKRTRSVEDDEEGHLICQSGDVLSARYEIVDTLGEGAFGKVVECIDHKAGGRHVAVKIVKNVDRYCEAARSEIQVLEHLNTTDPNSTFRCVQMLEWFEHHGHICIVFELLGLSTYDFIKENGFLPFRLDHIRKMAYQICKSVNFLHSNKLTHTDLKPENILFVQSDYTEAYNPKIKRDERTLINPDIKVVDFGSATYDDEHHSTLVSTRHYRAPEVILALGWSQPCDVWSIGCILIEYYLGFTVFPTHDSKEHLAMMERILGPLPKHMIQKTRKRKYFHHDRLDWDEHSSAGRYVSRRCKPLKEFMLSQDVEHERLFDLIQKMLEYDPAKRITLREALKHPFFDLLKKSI
DYRK1B, sequence (Q9Y463 whole entry): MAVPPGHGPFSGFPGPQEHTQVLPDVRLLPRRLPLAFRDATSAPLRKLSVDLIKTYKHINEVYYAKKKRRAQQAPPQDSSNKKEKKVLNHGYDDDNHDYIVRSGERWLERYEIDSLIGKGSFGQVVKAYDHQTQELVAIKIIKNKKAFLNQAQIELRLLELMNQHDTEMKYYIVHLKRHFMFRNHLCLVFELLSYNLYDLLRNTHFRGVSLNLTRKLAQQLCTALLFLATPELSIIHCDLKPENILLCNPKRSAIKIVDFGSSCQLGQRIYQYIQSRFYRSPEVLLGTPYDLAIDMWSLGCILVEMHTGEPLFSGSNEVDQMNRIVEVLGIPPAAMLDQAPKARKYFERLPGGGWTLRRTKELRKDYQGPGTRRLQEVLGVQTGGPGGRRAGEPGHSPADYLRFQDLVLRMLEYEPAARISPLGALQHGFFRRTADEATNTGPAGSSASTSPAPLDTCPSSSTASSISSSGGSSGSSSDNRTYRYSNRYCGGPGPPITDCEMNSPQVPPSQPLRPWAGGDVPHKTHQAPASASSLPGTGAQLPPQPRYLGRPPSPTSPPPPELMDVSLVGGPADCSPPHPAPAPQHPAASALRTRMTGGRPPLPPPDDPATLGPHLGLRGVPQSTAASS
CAMKK1, sequence (Q8N5S9 whole entry): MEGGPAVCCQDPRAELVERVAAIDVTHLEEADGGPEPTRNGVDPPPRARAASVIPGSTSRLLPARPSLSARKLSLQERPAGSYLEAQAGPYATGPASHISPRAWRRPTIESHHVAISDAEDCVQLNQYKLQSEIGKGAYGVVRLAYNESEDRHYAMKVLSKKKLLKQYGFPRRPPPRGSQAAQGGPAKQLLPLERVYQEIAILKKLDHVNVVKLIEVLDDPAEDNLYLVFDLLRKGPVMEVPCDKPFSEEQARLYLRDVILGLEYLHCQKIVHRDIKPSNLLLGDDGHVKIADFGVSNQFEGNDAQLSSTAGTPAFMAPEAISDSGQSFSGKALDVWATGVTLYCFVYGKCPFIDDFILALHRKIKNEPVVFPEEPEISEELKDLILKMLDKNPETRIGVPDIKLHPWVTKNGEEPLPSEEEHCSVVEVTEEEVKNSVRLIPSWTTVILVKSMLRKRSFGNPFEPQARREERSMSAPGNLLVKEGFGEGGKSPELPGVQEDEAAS

With `COc1ccc(-c2cnccc2-c2cnc(NC(=O)C(C)C)s2)c(C(F)(F)F)c1` [CRT0105446, N-{5-[3-(4-Methoxy-2-trifluoromethyl-phenyl)-pyridin-4-yl]-hiazol-2-yl}-isobutyramide], the remaining binding at 10 µM worked out at 89% on IRAK3; 96% at PIK3CG; 99% on MAP3K4; 68% on MKNK2; 82% at CAMKK1; 100% at MEK6. For the same molecule, the remaining binding at 10 µM at PKNB(M.tuberculosis) worked out at 82%; at EPHA1, 100%; at GSK3B, 82%; at GCN2(Kin.Dom.2,S808G) it was 92%; on PKAC-beta it was 100%; on FGR, 93%. Also, the remaining binding at 10 µM was found to be 32% on TTK; 92% in [1]; 95% at ROCK2; 39% at DCAMKL2; 100% at PRKX; 91% on EGFR(L858R,T790M). Also, the remaining binding at 10 µM worked out at 36% on JNK3; 40% on DYRK1B; 34% on JNK1; 100% on ERBB3; 85% at CLK1.

As to `Cc1ccc(-c2cnccc2-c2cnc(Nc3ccc(O)cc3)s2)c(Cl)c1` [CRT0105950, 4-{5-[3-(2-Chloro-4-methyl-phenyl)-pyridin-4-yl]-thiazol-2-ylamino}-phenol], the remaining binding at 10 µM was found to be 8.1% on IRAK3; 82% on PIK3CG; 100% on MAP3K4; 1.8% on MKNK2; 26% on CAMKK1; 20% at MEK6. In addition, the remaining binding at 10 µM at PKNB(M.tuberculosis) amounted to 19%; on EPHA1, 74%; on GSK3B it was 86%; on GCN2(Kin.Dom.2,S808G), 94%; on PKAC-beta, 44%; on FGR, 32%. For the same molecule, the remaining binding at 10 µM on TTK was 1.7%; in experiment [1], 74%; on ROCK2 it was 77%; at DCAMKL2 it was 77%; at PRKX, 100%; on EGFR(L858R,T790M), 89%. Moreover, the remaining binding at 10 µM at JNK3 is 25%; at DYRK1B it was 5.6%; on JNK1 it was 40%; on ERBB3 it was 100%; on CLK1, 0.4%.
